Experimental findings from patent publication US20220187274A1, “NEMATODE TRAP PLATE AND USE THEREFOR” (priority 2019, published 2022) are described below.

Experiment [1] has as its system C. elegans. Description: Conventional chemotaxis evaluation method on assay plate with sodium azide (Comparative Example 1). It is filed as in vivo, Caenorhabditis elegans. The note with it: Comparative Example 1, conventional method; undiluted solution and test solution with a large dilution factor; three tests. The method, then: As a comparative example, evaluation of a response of nematodes was conducted in accordance with a conventional chemotaxis evaluation method (e.g., Non-Patent Literature 1). […] Similarly to the test in Example 1, an undiluted solution of diacetyl and diluted solutions prepared by diluting diacetyl at five different concentrations were used as test solutions. One drop of the test solution was dripped on each of two positions (test solution spots) on a left half of a circle with a radius of 3 cm about the center of the assay plate. Meanwhile, the buffer solution serving as the control was dripped on each of positions (control spots) that were on a right half of the circle with a radius of 3 cm about the center of the assay plate and that were arranged point symmetrically. […] Based on the captured image of the entire assay plate, an example of which is shown in FIG. 11, the number of nematodes fixed under anesthesia was counted in each of test solution areas extending concentrically from the two test solution spots on the left part and control areas extending concentrically from the two control spots on the right part. […] The response of the nematodes was evaluated with use of the chemotaxis index (C.I.), which was used also in Example 1, assuming that the number of nematodes in the test solution areas was N1 and the number of nematodes in the control areas was N2. […]

Experiment [2] deals with C. elegans. The experiment can be described thus: Nematode trap plate (PASS) olfaction test, chemotaxis index to a volatile substance. It is filed as in vivo, Caenorhabditis elegans. The method, then: (Method for Evaluating Test Result) On the basis of the number of nematodes caught in the fall-in cavity which number has been obtained in the above-described manner, a response of the nematodes is evaluated. In the olfaction test or gustation test for evaluating a response of the nematodes to a chemical substance or the like, it is possible to evaluate the response on the basis of, e.g., a chemotaxis index (it may sometimes be abbreviated as “C.I.”). The chemotaxis index, which is used to evaluate the taxis of the test subject to the chemical substance or the like, is defined by in the following manner. That is, the number of nematodes caught in a control fall-in cavity is subtracted from the number of nematodes caught in a fall-in cavity for the test subject so that a difference is yielded, and the difference is divided by the total number of nematodes caught in all the fall-in cavities. In a case where there exist two or more fall-in cavities for the test subject, the total number of nematodes caught in these fall-in cavities is considered as “the number of nematodes caught in the fall-in cavity for the test subject”. Similarly, in a case where there exist two or more control fall-in cavities, the total number of nematodes caught in these control fall-in cavities is considered as “the number of nematodes caught in the control fall-in cavity”. Specifically, the chemotaxis index (C.I.) can be obtained by the following formula, where Ni is the total number of nematodes caught in the fall-in cavity for the test subject and N2 is the total number of nematodes caught in the control fall-in cavity.
Chemotaxis index (C.I.)=(N1−N2)/(N1+N2).
In the Examples shown below, tests were conducted by using C. elegans as the nematodes, unless otherwise stated. In each of the Examples, a commercially-available circular plastic dish was used as the container of the nematode trap plate. The size of the plastic dish, the capacity (volume) of a solid medium mainly made of an agar, and the number of fall-in cavities to be formed were set as appropriate in consideration of the purpose of the test, the volume of a sample obtained, and the like. In each case, the fall-in cavities were formed in the shape of a cylinder having a diameter of approximately 5 mm. […] The following description will be made by using the names of the plates shown in Table 1 (plate A1, plate A2, plate B1, plate B2, plate B3, plate B4, and plate B5).
First, a plate A1 was produced that included (a) two fall-in cavities 2a formed in a left part of a solid medium so as to be arranged side by side along the outer periphery of the solid medium and (b) two fall-in cavities 2b formed in control positions in a right part of the solid medium in a similar manner to the fall-in cavities 2a. […]
Then, the response was evaluated. […]

The test system of experiment [3] is hetero group M of free-living soil nematodes (collected at Ogasawara village, Tokyo, Japan). Description: Nematode trap plate olfaction test with soil nematodes other than C. elegans, group M. It is filed as in vivo. The note with it: Example 15, plate A1, 1 mM diluted solution, negative = avoidance. The method, then: (§1) Example 15 was conducted for the purpose of studying applicability of the plate of the present invention to evaluation of a response of nematodes other than C. elegans. Specifically, the test was conducted to examine a response of a hetero group M of free-living soil nematodes (collected at Ogasawara village, Tokyo, Japan) and a hetero group H of free-living soil nematodes (collected at Takayama city, Gifu, Japan) with respect to a volatile substance. A plate A1 identical to that produced in Example 1 was produced. Left fall-in cavities 2a were filled with a test solution, whereas right fall-in cavities 2b were filled with a buffer solution as a control. The test solution used in Example 15 was a diluted solution (1 mM) of vanillin, which is a kind of volatile substance. […] Then, the plate was left at least for an hour under a light-shielded environment. […] The chemotaxis index (C.I.) was obtained in a similar manner to Example 1, and the response of the nematodes was evaluated. […] Note that the tests involving use of the nematode group M and the nematode group H were conducted independently.

Experiment [4] has as its system hetero group H of free-living soil nematodes (collected at Takayama city, Gifu, Japan). The experiment can be described thus: Nematode trap plate olfaction test with soil nematodes other than C. elegans, group H. It is filed as in vivo. The note with it: Example 15, plate A1, 1 mM diluted solution, positive = attraction. On the procedure:
as §1

For the molecule `CC(=O)C(C)=O` [diacetyl], the “Chemotaxis index (C.I.)” value in the experiment with C. elegans [1] was “a positive value was obtained in one case, and a negative value was obtained in another case”; in the experiment with C. elegans [2] (Example 1, plate A1, four other dilution concentrations among six, all three tests, positive = attraction) it was “positive values”; with C. elegans [2] (Example 1, plate A1, two highest concentrations among six (undiluted 11.5 M to 100000-fold dilution), all three tests, negative = escaping) it was “negative values”; in the experiment on C. elegans [2] (Example 2, plate A2 (solid medium volume twice that of A1), six concentrations, undiluted to 100000-fold, three tests), “the same results as in Example 1”.
Take `COc1cc(C=O)ccc1O` [vanillin]: the “Chemotaxis index (C.I.)” value was “negative C.I. value” in experiment [3] and “positive C.I. value” in experiment [4].
With `O=Cc1ccccc1` [benzaldehyde], the “Chemotaxis index (C.I.)” value in the experiment on C. elegans [2] (Example 3, plate B1, each of three dilutions from 10000-fold to 100000-fold of 9.8 M undiluted solution, mean of four tests, maximum 1.0) is “not less than 0.9”.
